Results published in US5489612A, “Calixarene chloride-channel blockers” (The University of Alabama at Birmingham Research Foundation, priority 1994, dated 1996).
Read-outs that look alike come from different tables or passages of the source.

Tested on: colonic secretory chloride channel
Assay: Single chloride channels from rat colonic enterocyte plasma membrane vesicles incorporated into planar lipid bilayers; calixarene added to the cis (outer membrane) side
Type: biochemical
Conditions: for duration of the block periods: increases with size n of p-sulfonatocalix[n]arene; for MAXIMUM BLOCK PERIODS: single channel in PE:PS 7:3 planar bilayer; for MAXIMUM BLOCK PERIODS (block of channel): UPTO 100 μM
Procedure: In accordance with the methodology of Reinhardt et al., "Properties of an Anion-selective Channel from Rat Colonic Enterocyte Plasma Membranes Reconstituted into Planar Phospholipid Bilayers", J. Membrane Biol. 95: 47-54, 1987, calixarene derivatives were tested on single chloride channels incorporated into planar lipid bilayers. Plasma membrane vesicles derived from rat colonic enterocytes were used as a source of chloride channels. Properties of the colonic secretory chloride channel include one dominant open-state conductance, an outwardly rectified current-voltage relation with a zero voltage slope conductance of 50 pS in 150 mM Cl, a Cl to Na selectivity of at least 10:1, and a halide selectivity of I>Br>CI>F. Patch-clamp studies of several chloride secreting epithelia have identified an apical membrane chloride channel with identical biophysical properties. This channel is activated by CAMP and Ca mediated agonists and thus is considered a secretory chloride channel.
Chloride channels were incorporated into planar lipid bilayers of phosphatidylethanolamine and phosphatidylserine (PE:PS, 7:3) and data recorded according to known test methodology. See, Bridges et al., "Stilbene Disulfonate Blockade of Colonic Secretory Cl^- Channels in Planar Lipid Bilayers", Am. J. Physiol. 256 (Cell Physiol. 25): C902-C912, 1989. See also, Reinhardt et al. and Singh et al., supra.
Once a chloride channel was incorporated into the bilayer, baseline (control) channel activity was recorded for 5-15 minutes. The calixarenes were then added to the cis or outer membrane side of the channel and the channel activity recorded for an additional 5-15 minutes at each concentration. Because each channel serves as its own control, calixarene effects could be uniquely identified. In some experiments the cis compartment was exchanged with calixarene-free solution to test the reversibility of the calixarene-induced effects. Single channel records were stored on video tape and quantitatively evaluated by computer assisted analysis.

[1] = single channel in planar bilayer, Table 1, read-out: Ki (concentration causing a half-maximal inhibition)

| Compound | duration of the block periods | Ki (read-out: concentration causing a half maximal decrease (K1) in Po (percent time channel in open state)) | MAXIMUM BLOCK PERIODS (Table 1) | Ki [1] | MAXIMUM BLOCK PERIODS (block of channel) | blocking the chloride channel (even at a concentration as high as 100 μM) | long-lived block periods, duration (at a concentration as low as 3 nM) | K1 (suggested from brief open periods between long blocks) (estimate) |
| --- | --- | --- | --- | --- | --- | --- | --- | --- |
| O=S(=O)(O)c1cc2c(O)c(c1)Cc1cc(S(=O)(=O)O)cc(c1O)Cc1cc(S(=O)(=O)O)cc(c1O)Cc1cc(S(=O)(=O)O)cc(c1O)C2 [5,11,17,23-TETRASULFONATO-CALIX[4]ARENE, 5,11,17,23-tetrasulfonato-calix[4]arene] | 3 to 4 s | < 1000 nM | 3 to 4 s | 800 to 900 nM |  |  |  |  |
| O=S(=O)(O)c1cc2c(O)c(c1)Cc1cc(S(=O)(=O)O)cc(c1O)Cc1cc(S(=O)(=O)O)cc(c1O)Cc1cc(S(=O)(=O)O)cc(c1O)Cc1cc(S(=O)(=O)O)cc(c1O)Cc1cc(S(=O)(=O)O)cc(c1O)Cc1cc(S(=O)(=O)O)cc(c1O)Cc1cc(S(=O)(=O)O)cc(c1O)C2 [5,11,17,23,29,35,41,47-octasulfonatocalix[8]arene] | > 100 s |  | > 100 s | < 50 nM |  |  |  |  |
| O=S(=O)(O)c1cc2c(O)c(c1)Cc1cc(S(=O)(=O)O)cc(c1O)Cc1cc(S(=O)(=O)O)cc(c1O)Cc1cc(S(=O)(=O)O)cc(c1O)Cc1cc(S(=O)(=O)O)cc(c1O)Cc1cc(S(=O)(=O)O)cc(c1O)C2 [5,11,17,23,29,35-hexasulfonatocalix[6]arene] | 30 to 40 s |  | 30 to 40 s | 400 to 500 nM |  |  |  |  |
| COc1c2cccc1Cc1cccc(c1OC)Cc1cccc(c1OC)Cc1cccc(c1OC)C2 [25,26,27,28-TETRAMETHOXY-CALIX[4]ARENE, reference compound] |  |  |  |  | NO BLOCK |  |  |  |
| Oc1c2cccc1Cc1cccc(c1O)Cc1cccc(c1O)Cc1cccc(c1O)C2 [CALIX[4]ARENE, Calix[4]arene, reference compound] |  |  |  |  | NO BLOCK | completely ineffective |  |  |
| COc1c2cc(S(=O)(=O)O)cc1Cc1cc(S(=O)(=O)O)cc(c1OC)Cc1cc(S(=O)(=O)O)cc(c1OC)Cc1cc(S(=O)(=O)O)cc(c1OC)C2 [5,11,17,23-tetrasulfonato-25,26,27,28-tetramethoxy-calix[4]arene] |  |  | > 100 s | < 3 nM |  |  | several hundred | subnanomolar |
